This is an account of results in US20070099232A1, “Ecdysone receptor ligand-binding domain structure” (priority 2003, published 2007).

Structures are written as SMILES.

Assay [1] relates to BtEcR. As to the kind of experiment: BtEcR competitive binding assay with [3H]-ponasterone A as tracer. Further details: species or system Bemisia tabaci. The source says: As will be readily understood by persons skilled in this field, the methods of the present invention provide a rational method for designing and selecting compounds which interact with an ecdysone receptor and specifically that of B. tabaci. In the majority of cases these compounds will require further development in order to increase activity. Such further development is routine in this field and will be assisted by the structural information provided in this application and screens employing EcR and optionally USP nucleotide and/or polypeptide sequences. In vitro competitive binding screens compete unlabelled test compounds against a labelled ligand (tracer) to observe if they inhibit the binding of the latter to functional receptor LBDs. In vitro competition binding screens may utilise LBD sequences or D (linker) domain sequences linked to LBD sequences. In vivo cell-based screens employ full-length EcR and optionally full-length USP nucleotide sequences functionally linked to suitable promoters for expression in mammalian, insect or yeast cells containing a suitable reporter gene construct. Alternatively, in vivo cell-based screens may employ the EF or DEF domain encoding regions of EcR and optionally of USP nucleotide sequences functionally linked to nucleotide sequences encoding domains from other transcription factors. In particular, the BtEcR nucleotide sequence (SEQ ID NO 1) and/or polypeptide sequence (SEQ ID NO 2) and optionally BtUSP nucleotide sequence and/or polypeptide sequence or the corresponding EF or DEF domains may be utilised in screens to develop improved compounds derived by rational design employing the B. tabaci EcR/USP crystal structure. It is intended that in particular embodiments the methods of the present invention includes such further developmental steps.
Biological assays to measure the activity of ecdysone receptor agonists and antagonists are well known in the field. Traditional screens for ecdysone receptor agonists examine candidate compounds for an ability to induce the moulting or pupation of whole insect larvae (Becker, 1941; Cymborowski, 1989), the evagination of imaginal discs (Fristrom J. W. & Yund, 1976) or morphological transformation of the Drosophila BII cell line (Clément et al., 1993). More recent assays use mammalian or other eukaryotic cells that have been co-transfected with a recombinant ecdysone receptor and a reporter gene linked to an appropriate response element Both types of screen can also be reformatted to detect non-agonist ligands (antagonists), which can be recognised by their ability to inhibit the activation the receptor by an agonist provided as a standard component of the assay (Yang et al., 1986; Oberdorster et al., 2001)(Oberdorster et al, 2001). […] In addition, potential agonists and antagonists may be screened for their ability to inhibit the binding of europium-labelled ecdysone receptor ligands to soluble, recombinant ecdysone receptor in a microplate-based format Europium is a lanthanide fluorophore, the presence of which can be measured using time-resolved fluorometry. […] Binding affinity and inhibitor potency may also be measured for candidate inhibitors using biosensor technology. […]

Assay [2] concerns the target T1, dipteran (Lucilia cuprina) receptor (Lucilia cuprina, UniProt O18531).
T1 construct: made in house
T1 sequence (O18531 442-677 limits assumed): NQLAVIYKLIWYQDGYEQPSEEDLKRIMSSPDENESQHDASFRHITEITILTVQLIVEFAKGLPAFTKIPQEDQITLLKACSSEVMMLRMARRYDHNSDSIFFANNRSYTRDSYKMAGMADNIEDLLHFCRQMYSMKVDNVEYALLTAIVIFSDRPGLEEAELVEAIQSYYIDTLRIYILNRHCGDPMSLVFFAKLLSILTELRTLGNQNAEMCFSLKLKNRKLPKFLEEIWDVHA
Put plainly: In vitro binding studies employing purified recombinant LBDs (dipteran receptor). Particulars: unpublished results. The source says: (§1) Table 3 presents the inter-order variation apparent across a variety of Insecta EcR LBDs for those residues that line the ecdysteroid binding pocket observed in the B. tabaci structure. […] For example, in the hemipteran B. tabaci (resistant to the bisacylhydrazine compounds) residue 272 is methionine, whereas in lepidopteran species (susceptible to bisacylhydrazines) the residue at this position is a smaller valine. Attention has also been drawn to the potential importance of the residue at this position in relation to the control spectrum of bisacylhydrazine insecticides in the communication by Billas et al. (2003) reporting the crystal structure of the lepidopteran Heliothis virescens EcR/USP heterodimeric LBD. It is apparent from Table 3 of the present application that the methionine at position 272 is present in the Hemiptera, Diptera, Orthoptera and Coleoptera while the residue in this position of the Lepidoptera is valine. […] Clearly the response to bisacylhydrazines is not simply dependent on the residue at the position corresponding to 272 in B. tabaci.

The subject of assay [3] is whitefly (B. tabaci) receptor. Put plainly: In vitro binding studies employing purified recombinant LBDs (whitefly receptor). Further details: species or system Bemisia tabaci. To be noted: unpublished results.
Source text: as §1

Assay [4] has as its system Lepidotera versus Diptera. To be noted: selectivity at the level of insect orders; cited from earlier work.
The target in assay [5] is recombinant B. tabaci receptor LBD (BtEcR/BtUSP heterodimer). As to the kind of experiment: Equilibrium binding studies with [3H]-ponasterone A as ligand. To be noted: by direct curve fitting, recombinant heterodimeric LBD. On the set-up: species or system Bemisia tabaci. The method, then:
Pilot-scale expression of recombinant heterodimeric BtEcR-BtUSP LBD was achieved by infection of suspension cultures of Sf9, Sf21 and or Hi-5 insect cells in spinner flasks or Schott bottles on a shaker platform maintained at 27° C. Insect cells infected with the virus engineered to express BtEcR/BtUSP ligand-binding domain were shown by gel electrophoresis to contain the expressed polypeptides corresponding to the two tagged domains.

The test system of assay [6] is BtEcR/BtUSP heterodimer binding to EcRE DNA. As to the kind of experiment: Electrophoretic mobility shift assay (EMSA) of receptor binding to EcRE (hsp27 response element). Format: biochemical, Bemisia tabaci. Particulars: in the presence of 5mM MgCl2; compared to binding without hormone. The method, then:
DNA binding function was assessed by electrophoretic mobility shift assay (EMSA). For these experiments, EcR and USP proteins were translated as above but using unlabelled methionine. The EcRE probe (hsp27 response element) was prepared by α-^32P labelling 5 pmol of annealed oligo (5′[…]3′ and 5′[…]3′) with Klenow ([…] Labelling Kit, Geneworks). This mix was then phenol/chloroform extracted, ethanol precipitated and resuspended in 100 μl of TE. Binding and electrophoresis were performed as described by (Molloy, 2000). For a 20 μl reaction mix, 2.5 μl of each translated extract was incubated with 8.0 μl of BufferA (20 mM HEPES pH 7.9, 100 mM KCI, 2 mM dithiothreitol (DTT), 1 mM EDTA, 20% (v/v) glycerol), 2 μl of 2% (v/v) NP-40, 1 μl BSA (10 mg/ml), 0.5 μl 2 mg/ml poly (dI-dC).poly(dI-dC), 6 μg single stranded DNA plus or minus 1 μl of 100 mM MgCl2. After 20 minutes at room temperature, 0.05 pmoles of labelled probe was added and the mix was incubated again for 20 minutes. One sample also had the addition of excess (1.25 pmoles) unlabelled EcRE DNA. 10 μl of the mix was analysed by electrophoresis at 4° C., 80 V in a 0.25×TBE, 5% polyacrylamide gel. After fixing and drying, radioactive species were visualized by the Molecular Dynamics Phosphorimaging system. […]
In general terms: A gel shift assay detects complexes by their altered migration in electrophoresis.

The test system of assay [7] is Choristoneura fumiferana EcR A110P. Particulars: single point mutation A110P; cited from earlier work.

Consider `CCc1ccc(C(=O)NN(C(=O)c2cc(C)cc(C)c2)C(C)(C)C)cc1` [RH5992], for which the “binding in BtEcR competitive binding assay” value in assay [1] was “negligible binding”. Moreover, the “affinity of receptor for compound” value in assay [2] was “significant affinity”; in assay [3], “only very low affinity”. Also, in assay [4], the “effectiveness against Lepidotera relative to Diptera” value is “two to three orders of magnitude more effective”. On to `CC(C)(C)N(NC(=O)c1ccccc1)C(=O)c1ccccc1` [compound I], for which the “binding in BtEcR competitive binding assay” value in assay [1] is listed as “negligible binding”. As a reminder, the Kd is a measure of binding affinity in units of concentration. In the case of `CC(C)CC[C@@H](O)[C@](C)(O)[C@H]1CC[C@@]2(O)C3=CC(=O)[C@@H]4C[C@@H](O)[C@@H](O)C[C@]4(C)[C@H]3CC[C@]12C` [ponasterone A], in assay [5], the Kd stood at 1.21 ± 0.17 nM. The “effect of hormone on binding of receptor heterodimer to EcRE” value in assay [6] is “clearly enhanced binding”.

Consider `CCc1c(OC)cccc1C(=O)NN(C(=O)c1cc(C)cc(C)c1)C(C)(C)C` [RG-102240], for which the “effect of A110P point mutation on response of receptor to ligand” value in assay [7] is “without affecting response”. Consider `O=C(CSC1NCCN1)c1ccccc1` [IV], for which the “binding in BtEcR competitive binding assay” value in assay [1] is “weak-moderate binding”. Still for that read-out and setting: under `CC(C)(C)C(=O)N1N=C(c2ccccc2)OC1(C)c1ccc(F)cc1` (centres unmarked) [compound II] stands “negligible binding”; under `O=C1OC(c2cccs2)=N/C1=C/c1ccccc1` [compound III], “weak-moderate binding”.
